Earlier results as cited in patent publication US9382205B2, “Processes for the manufacture of a pharmaceutically active agent” (H. Lundbeck A/S, priority 2009, dated 2016).

Experiments:
[1] = biological target: human 5-HT6 receptor; settings: from Roth et al. 1994
[2] = tested on: Alzheimer's patients; settings: first report
[3] = Rogers et al. 1999
[4] = tested on: aged rats

CN(C)CCC=C1c2ccccc2CCc2ccccc21 [amitriptyline]
Ki [1]: 0.065 µM

O=S(=O)(c1ccccc1)c1cnc2c(N3CCNCC3)cccc2c1 [SB-742457]
clinical benefit [2]: of clinical benefit

COc1ccc(NS(=O)(=O)c2sc3ccc(Cl)cc3c2C)cc1N1CCNCC1 [SB-271046]
performance in the Morris water maze [3]: improved performance
spatial alternation operant behavior test [4]: improvements
